{"source": "patent US9458213B2", "about": "“Compositions and methods for diagnosing prostate cancer based on detection of SLC45A3-ELK4 fusion transcript” (CORNELL UNIVERSITY, priority 2009, dated 2016)", "key": {"[1]": {"system": "SLC45A3-ELK4 mRNA in LNCaP cells", "test": "Hormonal treatment of LNCaP cells, quantitative RT-PCR (TAQMAN) of SLC45A3-ELK4 fusion transcript", "assay_type": "cell-based, human", "procedure": "(§1) FIGS. 4a-4c. Androgen stimulation of LNCaP cells and induction of SLC45A3-ELK4 (FIG. 4a), endogenous ELK4 (FIG. 4b) mRNA and KLK3 (PSA) mRNA (FIG. 4c). Bar charts are the average fold induction in LNCaP cells treated with 1nM R1881 in the absence (black bars) or presence (gray bars) of 10 μM flutamide at the indicated time points. For flutamide treatment cells were pre-treated 2 hours with 10 μM flutamide, medium was removed and the fresh medium plus 1 nM R1881 plus 10 μM flutamide were given for the indicated time points. All experiments were run in triplicates (standard deviation indicated by the error bars).\n(§2) Quantitative RT-PCR using TAQMAN technology. To quantify SLC45A3-ELK4 and endogenous ELK4 transcripts, custom designed primers and probes (SLC45A3-ELK4: primers in SLC45A3 exon 1 and ELK4 exon 2, probe in ELK4 exon 2) were employed in (ELK4, Hs00360812_m1) TAQMAN Gene Expression Assays (Applied Biosystems, Foster City, Calif.) for improved sensitivity and specificity of detection. […] Each target was run in triplicate and expression levels were calculated using the comparative Ct method (ABI Bulletin 2, Applied Biosytems) with TCFL1 as a reference gene and given as fold change over the average expression levels of benign samples. […]"}, "[2]": {"system": "endogenous ELK4 mRNA in LNCaP cells", "test": "Hormonal treatment of LNCaP cells, quantitative RT-PCR (TAQMAN) of endogenous ELK4", "assay_type": "cell-based, human", "procedure": "as §1, §2"}, "[3]": {"settings": "LNCaP cells treated with R1881 (summary statement)"}, "[4]": {"settings": "LNCaP cells, R1881 1 nM, twelve hours following treatment"}}, "data": [{"smiles": "C[C@]1(O)CC[C@H]2[C@@H]3CCC4=CC(=O)CCC4=C3C=C[C@@]21C", "note": "[R1881]", "values": [{"measurement": "regulation of SLC45A3-ELK4 mRNA upon treatment", "setting": "[1]; [3]", "value": "up-regulated"}, {"measurement": "induction of SLC45A3-ELK4", "setting": "[1]; [4]", "value": 25, "unit": "fold"}, {"measurement": "regulation of endogenous ELK4 mRNA upon treatment", "setting": "[2]; [3]", "value": "not endogenous ELK4 mRNA, was up-regulated"}, {"measurement": "change in ELK4 (assay not targeting the fusion transcript)", "setting": "[2]; [4]", "value": "no change"}]}]}
